From patent US8389513B2, “2-amino-5,5-difluoro-5,6-dihydro-4H-[1,3]oxazin-4-yl)-phenyl]-amides” (Hoffmann-La Roche Inc., priority 2009, dated 2013)

Assays:
BACE1 = target: T1, BACE1 (Homo sapiens, UniProt P56817); assay: Cellular Aβ-lowering assay (Aβ40 ELISA); format: cell-based; conditions: HEK293 cells stably expressing human APP695; Aβ40 in culture supernatant; read-out: BACE1 cell act. Aβ40 IC50
T1 construct: Human HEK293 cells which are stably transfected with a vector expressing a cDNA of the human APP wt gene (APP695); endogenous in cells; host or cells: HEK293 stably transfected with human APP695 wt
Description: Cellular Aβ-Lowering Assay:
Human HEK293 cells which are stably transfected with a vector expressing a cDNA of the human APP wt gene (APP695) were used to assess the potency of the compounds in a cellular assay. The cells were seeded in 96-well microtiter plates in cell culture medium (Iscove, plus 10% (v/v) fetal bovine serum, glutamine, penicillin/streptomycin) to about 80% confluence and the compounds were added at a 10× concentration in 1/10 volume of medium without FCS containing 8% DMSO (final concentration of DMSO was kept at 0.8% v/v). After 18-20 hrs incubation at 37° C. and 5% CO2 in a humidified incubator the culture supernatant was harvested for the determination of Aβ40 concentrations. […] Subsequently the wells of the microtiter plate were washed extensively with Tris-buffered saline containing 0.05% Tween 20 and the assay was developed with tetramethylbenzidine/H2O2 in citric acid buffer. After stopping the reaction with one volume 1 NH2SO4 the reaction was measured in an ELISA reader at 450 nm wavelength. The concentrations of Aβ in the culture supernatants were calculated from a standard curve obtained with known amounts of pure Aβ peptide.

BACE2 = target: T2, BACE2 (Rattus norvegicus, UniProt Q6IE75); assay: Assay for BACE inhibition by measuring cellular TMEM27 cleavage; format: cell-based; conditions: INS-TMEM27 cells (INS1e-derived); shed TMEM27 by ELISA; read-out: BACE2 cell act. IC50
T2 construct: endogenous cellular BACE2 in the Ins1e rat cell line; endogenous in cells; host or cells: INS-TMEM27 (INS1e-derived rat cell line with TetOn-inducible full-length hTMEM27)
T2 sequence (Q6IE75 63-514): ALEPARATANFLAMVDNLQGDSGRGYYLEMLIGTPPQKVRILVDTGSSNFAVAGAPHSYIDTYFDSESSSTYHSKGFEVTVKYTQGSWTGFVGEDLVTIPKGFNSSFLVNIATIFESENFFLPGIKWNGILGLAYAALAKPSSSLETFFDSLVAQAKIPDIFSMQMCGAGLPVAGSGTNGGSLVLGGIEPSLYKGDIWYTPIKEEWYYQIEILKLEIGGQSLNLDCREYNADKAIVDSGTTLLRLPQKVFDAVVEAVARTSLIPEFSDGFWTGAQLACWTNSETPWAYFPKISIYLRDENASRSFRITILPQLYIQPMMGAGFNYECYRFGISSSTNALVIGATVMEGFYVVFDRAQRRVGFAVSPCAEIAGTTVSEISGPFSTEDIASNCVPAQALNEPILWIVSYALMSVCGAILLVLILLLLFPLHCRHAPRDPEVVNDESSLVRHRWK
Description: Assay for BACE Inhibition by Measuring Cellular TMEM27 Cleavage:
The assay uses the principle of inhibition of human TMEM27 cleavage by endogenous cellular BACE2 in the Ins1e rat cell line and shedding from the cell surface into the culture medium, followed by detection in an ELISA assay. Inhibition of BACE2 prevents the cleavage and shedding in a dose-dependent manner.
The stable cell line “INS-TMEM27” represents an INS1e-derived cell line with inducible expression (using the TetOn system) of full-length hTMEM27 in a doxycycline-dependent manner. The cells are cultured throughout the experiment in RPMI1640+Glutamax (Invitrogen) Penicillin/Streptomycin, 10% Fetal bovine serum, […] pyruvate, […] beta-mercatptoethanol, 100 micrograms/ml G418 and 100 microgram/ml hygromycin and are grown inadherent culture at 37° C. in a standard CO2 cell culture incubator. INS-TMEM27 cells are seeded in 96-well plates. After 2 days in culture, BACE2 inhibitor is added in a range of concentrations as required by the assay and after a further two hours, doxycycline is added to a final concentration of 500 ng/ml. The cells are incubated for a further 46 hours and the supernatant harvested for detection of shed TMEM27.
An ELISA assay (using a pair of mouse anti-human-TMEM27 antibodies, raised against the extracellular domain of TMEM27) is used for detection of TMEM27 in the culture medium. An EC50 for BACE2 inhibition is calculated using the ELISA readout for each inhibitor concentration with standard curve-fitting software such as XLFit for the Excel spreadsheet program.

T1 sequence (P56817 46-501): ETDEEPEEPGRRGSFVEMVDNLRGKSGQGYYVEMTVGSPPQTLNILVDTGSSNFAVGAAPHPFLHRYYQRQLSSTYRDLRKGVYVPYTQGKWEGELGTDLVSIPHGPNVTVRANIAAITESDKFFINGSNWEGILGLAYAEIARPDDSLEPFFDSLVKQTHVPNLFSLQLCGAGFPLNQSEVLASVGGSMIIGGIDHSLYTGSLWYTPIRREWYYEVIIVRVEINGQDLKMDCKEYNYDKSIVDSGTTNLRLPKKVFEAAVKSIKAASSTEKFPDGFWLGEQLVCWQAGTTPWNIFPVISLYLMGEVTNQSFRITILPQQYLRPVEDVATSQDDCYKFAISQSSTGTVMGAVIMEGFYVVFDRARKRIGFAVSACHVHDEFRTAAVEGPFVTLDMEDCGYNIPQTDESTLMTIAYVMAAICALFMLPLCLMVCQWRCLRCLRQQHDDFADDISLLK

Row | IC50 (BACE1) [nM] | IC50 (BACE2) [nM] | Structure (SMILES)
1 | 710 | 50700 | CC1(C)OC(N)=N[C@](C)(c2cc(NC(=O)c3ccc(Cl)nn3)ccc2F)C1(F)F [Example 37, 6-Chloro-pyridazine-3-carboxylic acid [3-((R)-2-amino-5,5-difluoro-4,6,6-trimethyl-5,6-dihydro-4H-[1,3]oxazin-4-yl)-4-fluoro-phenyl]-amide]
2 | 400 | 25700 | C[C@]1(c2cc(NC(=O)c3ccc(OCC(F)F)cn3)ccc2F)N=C(N)OCC1(F)F [Example 45, 5-(2,2-Difluoro-ethoxy)-pyridine-2-carboxylic acid [3-((R)-2-amino-5,5-difluoro-4-methyl-5,6-dihydro-4H-[1,3]oxazin-4-yl)-4-fluoro-phenyl]-amide]
3 | 11 | 855 | C[C@]1(c2cc(NC(=O)c3ccc(OC(F)F)cn3)ccc2F)N=C(N)OCC1(F)F [Example 41, 5-Difluoromethoxy-pyridine-2-carboxylic acid [3-((R)-2-amino-5,5-difluoro-4-methyl-5,6-dihydro-4H-[1,3]oxazin-4-yl)-4-fluoro-phenyl]-amide]
4 | 41 | 49 | C[C@]1(c2cc(NC(=O)c3ncc(F)cc3Cl)ccc2F)N=C(N)OCC1(F)F [Example 7, 3-Chloro-5-fluoro-pyridine-2-carboxylic acid [3-((R)-2-amino-5,5-difluoro-4-methyl-5,6-dihydro-4H-[1,3]oxazin-4-yl)-4-fluoro-phenyl]-amide]
5 | 17 | 24 | C[C@]1(c2cc(NC(=O)c3ccc(Cl)cn3)ccc2Cl)N=C(N)OCC1(F)F [Example 50, 5-Chloro-pyridine-2-carboxylic acid [3-((R)-2-amino-5,5-difluoro-4-methyl-5,6-dihydro-4H-[1,3]oxazin-4-yl)-4-chloro-phenyl]-amide]
6 | 12 | 70 | CC1(C)OC(N)=N[C@](C)(c2cc(NC(=O)c3ncc(Cl)cc3F)ccc2F)C1(F)F [Example 24, 5-Chloro-3-fluoro-pyridine-2-carboxylic acid [3-((R)-2-amino-5,5-difluoro-4,6,6-trimethyl-5,6-dihydro-4H-[1,3]oxazin-4-yl)-4-fluoro-phenyl]-amide]
7 | 31 | 26 | C[C@]1(c2cc(NC(=O)c3ncc(F)cc3F)ccc2F)N=C(N)OCC1(F)F [Example 4, 3,5-Difluoro-pyridine-2-carboxylic acid [3-((R)-2-amino-5,5-difluoro-4-methyl-5,6-dihydro-4H-[1,3]oxazin-4-yl)-4-fluoro-phenyl]-amide]
8 | 40 | 4750 | CC1(C)OC(N)=N[C@](C)(c2cc(NC(=O)c3cnc(C(F)(F)F)cn3)ccc2F)C1(F)F [Example 35, 5-Trifluoromethyl-pyrazine-2-carboxylic acid [3-((R)-2-amino-5,5-difluoro-4,6,6-trimethyl-5,6-dihydro-4H-[1,3]oxazin-4-yl)-4-fluoro-phenyl]-amide]
9 | 510 | 590 | C[C@]1(c2cc(NC(=O)C3CC3(F)F)ccc2F)N=C(N)OCC1(F)F (mixture of isomers) [Example 74, (RS)-2,2-Difluoro-cyclopropanecarboxylic acid [3-((R)-2-amino-5,5-difluoro-4-methyl-5,6-dihydro-4H-[1,3]oxazin-4-yl)-4-fluoro-phenyl]-amide]
10 | 1490 | 1010 | C[C@]1(c2cc(NC(=O)C3(C(F)(F)F)CC3)ccc2F)N=C(N)OCC1(F)F [Example 75, 1-Trifluoromethyl-cyclopropanecarboxylic acid [3-((R)-2-amino-5,5-difluoro-4-methyl-5,6-dihydro-4H-[1,3]oxazin-4-yl)-4-fluoro-phenyl]-amide]
11 | 30 | 761 | CC1(C)OC(N)=N[C@](C)(c2cc(NC(=O)c3ccc(OCF)cn3)ccc2F)C1(F)F [Example 26, 5-Fluoromethoxy-pyridine-2-carboxylic acid [3-((R)-2-amino-5,5-difluoro-4,6,6-trimethyl-5,6-dihydro-4H-[1,3]oxazin-4-yl)-4-fluoro-phenyl]-amide]
